Results taken from patent US10919923B2, “Organic phosphorus-based compound, and flame retardant and flame-retardant product comprising the same” (TEIJIN LIMITED, priority 2016, dated 2021).

Experiments:
Type in all cases: physicochemical
[1] = Storage stability of processing agent (fire retardant for fibers); design: key: ◯: no agglomeration and no sedimentation are seen by visual checking; X: agglomeration and sedimentation are seen by visual checking; settings: processing agent with 30 parts compound per 100 parts polyacrylic acid ester emulsion, 25° C. for 24 hours
Protocol: After interior car sheet cloth for automobiles was coated with the following processing liquid, its flame resistance and physical properties were tested. (test cloth): Polyester 100% woven car sheet cloth (weight of 300 g/m^2) was used. (processing agent): This was prepared by adding 1.5 parts of a nonionic surfactant, 1 part of a polyacrylic acid-based thickener and 0.5 part of 25% ammonia water to 100 parts of a polyacrylic acid ester emulsion having a solid content of 45% and further adding 30 parts of each of the above organic phosphorus-based compounds (FR-1 to FR-6) under agitation. The obtained processing agent was left to stand at 25° C. for 24 hours to evaluate its storage stability based on the following criteria.
◯: no agglomeration and no sedimentation are seen by visual checking
X: agglomeration and sedimentation are seen by visual checking

[2] = Solubility in 20° C. water (visual check of dissolution); settings: distilled water at 20° C., stirred 1 minute per addition
Protocol: Dissolution was visually checked after the organic phosphorus-based compound was added little by little to 100 g of distilled water adjusted to 20° C. and stirred for 1 minute for each addition.

[3] = ΔpH value of filtrate after stirring compound in dispersant solution; settings: 1 g compound in 1% phenol type nonionic surfactant solution, |pH1−pH2|
Protocol: The ΔpH value can be measured by the following method using a commercially available pH measuring instrument. 1 g of a dispersant is added to 99 g of distilled water used for the measurement and stirred to measure the pH of the obtained aqueous solution (the measurement value is designated as pH1). After 1 g of the organic phosphorus-based compound (1) of the present invention is added to the aqueous solution and stirred for 1 minute, the organic phosphorus-based compound (1) is filtered. The pH of the obtained filtrate is measured (the measurement value is designated as pH2). The ΔpH value of the present invention is calculated from the following equation (I). ΔpH value=|pH1−pH2| (I) (vi) Volume Standard Median Diameter, (vii) Maximum Particle Diameter, (viii) Standard Deviation
This was measured by the following method using a pH measuring instrument (HORIBA pH METER D-52 of HORIBA, LTD.). 1 g of a dispersant (phenol type nonionic surfactant) was added to 99 g of distilled water used for the measurement and stirred to measure the pH of the obtained aqueous solution (the measurement value was designated as pH1). After 1 g of the organic phosphorus-based compound was added to the aqueous solution and stirred for 1 minute, the organic phosphorus-based compound was filtered. The pH of the obtained filtrate was measured (the measurement value was designated as pH2). The ΔpH value was calculated from the following equation (I). ΔpH value=|pH1−pH2| (I) (vi) Volume Standard Median Diameter, (vii) Maximum Particle Diameter, (viii) Standard Deviation

[4] = Particle size distribution by Microtrack HRA
Protocol: The volume standard median diameter (vi), the maximum particle diameter (vii) and the standard deviation (viii) can be measured by using the microtrack of Nikkiso Co., Ltd. and measurement conditions that the particles should be transparent and that the particle shape should be nonspherical.
They were measured by using the Microtrack HRA of Nikkiso Co., Ltd. The measurement conditions are that the particles should be transparent, the particle shape should be nonspherical, the refractive index of the particles should be 1.60, and the refractive index of the solvent should be 1.33.

Row | Structure (SMILES) | Stability [1] | (ii) Solubility in 20° C. water [2] | (v) ΔpH value [3] | (vi) Volume standard median diameter [4] [μm] | (vii) Maximum particle diameter [4] [μm]
1 | O=P1(Cc2ccccc2)OCC2(CO1)COP(=O)(Cc1ccccc1)OC2 (single isomer, unassigned) [FR-1, 2,4,8,10-tetraoxa-3,9-diphosphaspiro[5.5]undecane,3,9-dibenzyl-3,9-dioxide] | ◯ | 0.01 g/100 g of water | 0.5 | 18 | 150
2 | O=P1(C(c2ccccc2)c2ccccc2)OCC2(CO1)COP(=O)(C(c1ccccc1)c1ccccc1)OC2 (stereo not drawn) [FR-4, 2,4,8,10-tetraoxa-3,9-diphosphaspiro[5.5]undecane, 3,9-bis(diphenylmethyl)-3,9-dioxide] | ◯ | 0.01 g/100 g of water | 0.7 | 25 | 180
3 | O=P1(Cc2ccccc2)OCC2(CO1)COP(=O)(Cc1ccccc1)OC2 (single isomer, unassigned) [FR-6, 2,4,8,10-tetraoxa-3,9-diphosphaspiro[5.5]undecane,3,9-dibenzyl-3,9-dioxide] | X | 0.01 g/100 g of water | 1.3 | 21 | 140
4 | O=P1(CCc2ccccc2)OCC2(CO1)COP(=O)(CCc1ccccc1)OC2 (stereo not drawn) [FR-3, 2,4,8,10-tetraoxa-3,9-diphosphaspiro[5.5]undecane,3,9-di(2-phenylethyl)-3,9-dioxide] | ◯ | 0.01 g/100 g of water | 0.3 | 22 | 140
5 | O=P1(Cc2ccccc2)OCC2(CO1)COP(=O)(Cc1ccccc1)OC2 (single isomer, unassigned) [FR-5, 2,4,8,10-tetraoxa-3,9-diphosphaspiro[5.5]undecane, 3,9-dibenzyl-3,9-dioxide] | ◯ | 0.01 g/100 g of water | 0.5 | 40 | 300
6 | CC(c1ccccc1)P1(=O)OCC2(CO1)COP(=O)(C(C)c1ccccc1)OC2 (stereo not drawn) [FR-2, 2,4,8,10-tetraoxa-3,9-diphosphaspiro[5.5]undecane,3,9-diα-methylbenzyl-3,9-dioxide] | ◯ | 0.01 g/100 g of water | 0.6 | 20 | 160
